Reference: US6958352B2, “Compounds for inhibiting insulin secretion and methods related thereto” (SmithKline Beecham Corporation, priority 2002, dated 2005)
Read-outs that look alike come from different tables or passages of the source.

Target: T1, mitochondrial calcium/sodium antiporter (Rattus norvegicus, UniProt Q6AXS0)
T1 sequence (Q6AXS0 1-585): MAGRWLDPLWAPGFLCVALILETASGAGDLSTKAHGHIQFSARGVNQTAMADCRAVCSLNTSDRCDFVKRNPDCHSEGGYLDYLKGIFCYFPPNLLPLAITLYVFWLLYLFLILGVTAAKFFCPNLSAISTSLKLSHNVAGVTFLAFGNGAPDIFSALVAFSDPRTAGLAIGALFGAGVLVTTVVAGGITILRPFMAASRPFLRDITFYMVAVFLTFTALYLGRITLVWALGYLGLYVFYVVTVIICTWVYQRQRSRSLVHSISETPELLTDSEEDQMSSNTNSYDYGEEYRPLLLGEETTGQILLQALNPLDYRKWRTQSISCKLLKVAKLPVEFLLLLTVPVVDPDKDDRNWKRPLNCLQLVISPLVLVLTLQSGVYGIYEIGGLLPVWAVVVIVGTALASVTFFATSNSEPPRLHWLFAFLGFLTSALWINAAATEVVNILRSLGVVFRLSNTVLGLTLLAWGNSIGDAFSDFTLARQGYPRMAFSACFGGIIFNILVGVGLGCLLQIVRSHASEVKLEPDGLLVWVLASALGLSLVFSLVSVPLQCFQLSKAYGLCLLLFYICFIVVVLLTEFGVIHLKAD
Test: Inhibition of mitochondrial calcium/sodium antiporter activity (NaCl-induced mitochondrial calcium efflux, calcium green 5N fluorescence)
Type: cell-based
Details: digitonin-permeabilized INS-1 cells, 20 mM NaCl
Experimental: INS-1 rat insulinoma cells (see Example 16) were harvested by trypsinization, washed and resuspended at 10×10^6 cells/ml in assay buffer (250 mM sucrose, 10 mM HEPES, 2.5 mM K2HPO4, 5 mM succinate, pH 7.4) containing 0.007% digitonin, 60 μM CaCl2 and 0.05 μM calcium green 5N (Molecular Probes, Inc., Eugene, Oreg.). After a five-minute calcium loading incubation, ruthenium red (1 μM; Sigma, St. Louis, Mo.) was added to block further calcium uptake by mitochondria. Cell suspensions were dispensed into 96-well plates (100 μl per well, 1×10^6 cells per well) and candidate agents (i.e., candidate mitochondrial calcium/sodium antiporter inhibitors) were added to some sets of triplicate wells at concentrations of 1, 10 or 100 μM, while other sets of wells provided appropriate control conditions (e.g., buffer and vehicle controls). Baseline fluorescence measurements were made using a multiwell plate fluorimeter (F-MAX™, Molecular Devices Corp., Sunnyvale, Calif.; or PolarStar™, BMG Labtechnologies, Inc., Durham, N.C.) according to the manufacturer's instructions. Calcium efflux from mitochondria was then induced by adding NaCl to all wells to achieve a final concentration of 20 mM, and the rate of change in fluorescence in each well was monitored […] for two minutes and quantified using software included with the plate reader.

[1] = Table 2, preferred compounds, read-out: IC50 ≦ 10 μM
[2] = Table 3, more preferred compounds, read-out: IC50 ≦ 1 μM

Compound	IC50 [1] [µM]	IC50 [2] [µM]
COC(=O)CSC(c1ccccc1C)c1cc(Cl)ccc1N (centres unmarked) [Compound 11aa]	≤ 10	≤ 1
COC(=O)CSC(c1cc(Cl)ccc1N)C1CCCCC1 (centres unmarked) [Compound 11ak]	–	≤ 1
COC(=O)CSC(CC(C)C)c1cc(Cl)ccc1N (centres unmarked) [Compound 11am]	≤ 10	–
COC(=O)CSC(CCCOCc1ccccc1)c1cc(Cl)ccc1N (centres unmarked) [Compound 11an]	≤ 10	–
COC(=O)CSC(c1cc(Cl)ccc1NC(=O)C(F)(F)F)c1c(C)cccc1C (centres unmarked) [Compound 11ba]	≤ 10	≤ 1
COC(=O)CSC(c1cc(Cl)ccc1N)c1sccc1C (centres unmarked) [Compound 11c]	≤ 10	–
COC(=O)CSC(c1cc(C)cc(C)c1)c1cc(Cl)ccc1N (centres unmarked) [Compound 11d]	≤ 10	≤ 1
COC(=O)CSC(c1nc2ccccc2s1)c1cc(Cl)ccc1N (centres unmarked) [Compound 11f]	≤ 10	–
COC(=O)CSC(c1cc(Cl)ccc1N)c1cccn1C (centres unmarked) [Compound 11h]	≤ 10	≤ 1
COC(=O)CSC(c1cccc(C)c1)c1cc(Cl)ccc1N (centres unmarked) [Compound 11i]	≤ 10	–
COC(=O)CSC(c1cc(Cl)ccc1N)c1cccc(C)c1C (centres unmarked) [Compound 11k]	≤ 10	–
COC(=O)CSC(c1ccc(C)c(C)c1)c1cc(Cl)ccc1N (centres unmarked) [Compound 11l]	≤ 10	–
COC(=O)CSC(c1cc(C)ccc1C)c1cc(Cl)ccc1N (centres unmarked) [Compound 11m]	≤ 10	–
COC(=O)CSC(c1ccccc1N)c1ccccc1Cl (centres unmarked) [Compound 11r]	≤ 10	–
COC(=O)CSC(c1cc(Cl)ccc1N)c1ccccc1Cl (centres unmarked) [Compound 11s]	≤ 10	≤ 1
COC(=O)CSC(c1ccccc1)c1cc([N+](=O)[O-])ccc1N (centres unmarked) [Compound 11t]	≤ 10	–
COC(=O)CSC(c1nccs1)c1cc(Cl)ccc1N (centres unmarked) [Compound 11u]	≤ 10	–
COC(=O)CSC(c1ccc(C)cc1C)c1cc(Cl)ccc1N (centres unmarked) [Compound 11w]	≤ 10	–
COC(=O)CSC(c1ccccc1)c1cc(Cl)ccc1N (centres unmarked) [Compound 11x]	≤ 10	–
CNC(=O)CSC(c1cc(Cl)ccc1N)c1ccccc1Cl (centres unmarked) [Compound 13a]	≤ 10	–
O=C(CSC(c1cc(Cl)ccc1O)c1ccccc1Cl)N1CCCCC1 (centres unmarked) [Compound 13ag]	≤ 10	–

Compound	IC50 [1] [µM]	IC50 [2] [µM]
O=C(CSC(c1ccccc1)c1cc(Cl)ccc1O)N1CCCCC1 (centres unmarked) [Compound 13ai]	≤ 10	–
CN(C)C(=O)CSC(c1cc(Cl)ccc1N)c1ccccc1Cl (centres unmarked) [Compound 13b]	≤ 10	≤ 1
Nc1ccc(Cl)cc1C(SCC(=O)NCCc1ccccc1)c1ccccc1Cl (centres unmarked) [Compound 13c]	≤ 10	≤ 1
Nc1ccc(Cl)cc1C(SCC(=O)N1CCCCC1)c1ccccc1Cl (centres unmarked) [Compound 13d]	≤ 10	≤ 1
Nc1ccc(Cl)cc1C(SCC(=O)NCCO)c1ccccc1Cl (centres unmarked) [Compound 13e]	≤ 10	–
Nc1ccc(Cl)cc1C(SCC(=O)NCc1ccccc1)c1ccccc1Cl (centres unmarked) [Compound 13f]	≤ 10	≤ 1
CC(=O)NCCNC(=O)CSC(c1cc(Cl)ccc1N)c1ccccc1Cl (centres unmarked) [Compound 13g]	≤ 10	≤ 1
Nc1ccc(Cl)cc1C(SCC(=O)NC1CCCCC1)c1ccccc1Cl (centres unmarked) [Compound 13h]	≤ 10	≤ 1
Nc1ccc(Cl)cc1C(SCC(=O)NCC(c1ccccc1)c1ccccc1)c1ccccc1Cl (centres unmarked) [Compound 13i]	≤ 10	≤ 1
Nc1ccc(Cl)cc1C(SCC(=O)N1CCN(c2ccccc2)CC1)c1ccccc1Cl (centres unmarked) [Compound 13j]	≤ 10	≤ 1
CCCNC(=O)CSC(c1cc(Cl)ccc1N)c1ccccc1Cl (centres unmarked) [Compound 13k]	≤ 10	≤ 1
CCCCCCNC(=O)CSC(c1cc(Cl)ccc1N)c1ccccc1Cl (centres unmarked) [Compound 13l]	≤ 10	≤ 1
COCCCNC(=O)CSC(c1cc(Cl)ccc1N)c1ccccc1Cl (centres unmarked) [Compound 13m]	≤ 10	≤ 1
Nc1ccc(Cl)cc1C(SCC(=O)NCC1CCCCC1)c1ccccc1Cl (centres unmarked) [Compound 13n]	≤ 10	≤ 1
C#CCNC(=O)CSC(c1cc(Cl)ccc1N)c1ccccc1Cl (centres unmarked) [Compound 13o]	≤ 10	≤ 1
Nc1ccc(Cl)cc1C(SCC(=O)NCCCn1ccnc1)c1ccccc1Cl (centres unmarked) [Compound 13p]	≤ 10	≤ 1
CN(C)CCCNC(=O)CSC(c1cc(Cl)ccc1N)c1ccccc1Cl (centres unmarked) [Compound 13q]	≤ 10	–
Nc1ccc(Cl)cc1C(SCC(=O)NC1CC1)c1ccccc1Cl (centres unmarked) [Compound 13r]	≤ 10	≤ 1
Nc1ccc(Cl)cc1C(SCC(=O)NCCc1ccc(O)cc1)c1ccccc1Cl (centres unmarked) [Compound 13s]	≤ 10	≤ 1
Nc1ccc(Cl)cc1C(SCC(=O)NCCc1ccc(O)c(I)c1)c1ccccc1Cl (centres unmarked) [Compound 13t]	≤ 10	–
Nc1ccc(Cl)cc1C(SCC(=O)NCCc1cc(I)c(O)c(I)c1)c1ccccc1Cl (centres unmarked) [Compound 13u]	≤ 10	≤ 1

Compound	IC50 [1] [µM]	IC50 [2] [µM]
NCCOCCOCCNC(=O)CSC(c1cc(Cl)ccc1N)c1ccccc1Cl (centres unmarked) [Compound 13v]	≤ 10	≤ 1
Nc1ccc(Cl)cc1C(SCc1nc(-c2ccc(F)cc2)no1)c1ccccc1Cl (centres unmarked) [Compound 14a]	≤ 10	–
Cc1noc(CSC(c2cc(Cl)ccc2N)c2ccccc2Cl)n1 (centres unmarked) [Compound 14b]	≤ 10	≤ 1
Cc1cc(C)cc(C(SCc2nc(C)no2)c2cc(Cl)ccc2N)c1 (centres unmarked) [Compound 14d]	≤ 10	–
Cc1noc(CSC(c2cccs2)c2cc(Cl)ccc2N)n1 (centres unmarked) [Compound 14g]	≤ 10	≤ 1
Cc1noc(CSC(c2cc(Cl)ccc2N)c2cccn2C)n1 (centres unmarked) [Compound 14h]	≤ 10	≤ 1
Cc1cccc(C(SCc2nc(C)no2)c2cc(Cl)ccc2N)c1 (centres unmarked) [Compound 14i]	≤ 10	–
Cc1noc(CSC(c2cc(Cl)ccc2N)c2cccc(C)c2C)n1 (centres unmarked) [Compound 14k]	≤ 10	≤ 1
Cc1noc(CSC(c2ccc(C)c(C)c2)c2cc(Cl)ccc2N)n1 (centres unmarked) [Compound 14l]	≤ 10	–
Cc1ccc(C)c(C(SCc2nc(C)no2)c2cc(Cl)ccc2N)c1 (centres unmarked) [Compound 14m]	≤ 10	–
Cc1ccc(C)c(C(SCc2nc(C)no2)c2cc(Cl)ccc2NC(=O)C(F)(F)F)c1 (centres unmarked) [Compound 14ma]	≤ 10	–
Cc1noc(CSC(c2ccccc2)c2cc([N+](=O)[O-])ccc2N)n1 (centres unmarked) [Compound 14t]	≤ 10	–
CCSC(c1cc(Cl)ccc1N)c1ccccc1Cl (centres unmarked) [Compound 15c]	≤ 10	≤ 1
Nc1ccc(Cl)cc1C(SCCO)c1ccccc1Cl (centres unmarked) [Compound 15d]	≤ 10	≤ 1
COC(=O)CCSC(c1cc(Cl)ccc1N)c1ccccc1Cl (centres unmarked) [Compound 15e]	≤ 10	≤ 1
Nc1ccc(Cl)cc1C(Sc1ccccn1)c1ccccc1Cl (centres unmarked) [Compound 15f]	≤ 10	≤ 1
Nc1ccc(Cl)cc1C(SCC(F)(F)F)c1ccccc1Cl (centres unmarked) [Compound 15i]	≤ 10	≤ 1
Nc1ccc(Cl)cc1C(SCCCO)c1ccccc1Cl (centres unmarked) [Compound 15k]	≤ 10	≤ 1
Nc1ccc(Cl)cc1C(SCCNC(=O)c1ccccc1)c1ccccc1Cl (centres unmarked) [Compound 16a]	≤ 10	≤ 1
